US6235759A, “Dihydropyridinones and pyrrolinones useful as alpha 1A adrenoceptor antagonists” (Merck & Co., Inc., priority 1999, dated 2001)
pKi: −log10 of the molar value.

Legend:
[1] = system: human alpha 1b adrenergic receptor; experiment: Selective Binding Assay, alpha 1b ([125I]-HEAT competition); details: alpha 1a versus alpha 1b
Description: Membranes prepared from stably transfected human alpha 1d and alpha 1b cell lines (ATCC CRL 11138 and CRL 11139, respectively) were used to identify compounds that selectively bind to the human alpha 1a adrenergic receptor. These competition binding reactions (total volume=200 μl) contained 50 mM Tris-HCl pH. 7.4, 5 mM EDTA, 150 mM NaCl, 100 pM [^125 I]-HEAT, membranes prepared from cell lines transfected with the respective alpha 1 subtype expression plasmid and increasing amounts of unlabeled ligand. Reactions were incubated at room temperature for one hour with shaking. Reactions were filtered onto Whatman GF/C glass fiber filters with a Inotec 96 well cell harvester. Filters were washed three times with ice cold buffer and bound radioactivity was determined (Ki).

[2] = molecular target: T1, human alpha 1a adrenergic receptor (Homo sapiens, UniProt P35348); experiment: Screening Assay: Alpha 1a Adrenergic Receptor Binding ([125I]-HEAT competition)
T1 construct: expressed in transfected cells; host or cells: stably transfected human alpha 1a cell line (ATCC CRL 11140)
T1 sequence (P35348 1-466): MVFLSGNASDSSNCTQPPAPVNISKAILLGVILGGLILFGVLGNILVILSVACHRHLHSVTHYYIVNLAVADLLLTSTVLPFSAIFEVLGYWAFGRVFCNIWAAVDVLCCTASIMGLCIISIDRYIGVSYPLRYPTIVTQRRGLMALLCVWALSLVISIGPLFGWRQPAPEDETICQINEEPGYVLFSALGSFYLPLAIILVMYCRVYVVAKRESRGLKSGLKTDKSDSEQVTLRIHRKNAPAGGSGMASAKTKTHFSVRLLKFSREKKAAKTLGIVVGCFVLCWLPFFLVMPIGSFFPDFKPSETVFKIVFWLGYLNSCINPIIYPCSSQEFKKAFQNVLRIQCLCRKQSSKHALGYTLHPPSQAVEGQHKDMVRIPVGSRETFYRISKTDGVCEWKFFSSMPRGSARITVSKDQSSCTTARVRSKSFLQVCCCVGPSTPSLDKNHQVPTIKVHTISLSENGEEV
Description: Screening Assay: Alpha 1a Adrenergic Receptor Binding
Membranes prepared from the stably transfected human alpha 1a cell line (ATCC CRL 11140) were used to identify compounds that bind to the human alpha 1a adrenergic receptor. These competition binding reactions (total volume=200 μl) contained 50 mM Tris-HCl pH. 7.4, 5 mM EDTA, 150 mM NaCl, 100 pM [^125 I]-HEAT, membranes prepared from the alpha 1a cell line and increasing amounts of unlabeled ligand. Reactions were incubated at room temperature for one hour with shaking. Reactions were filtered onto Whatman GF/C glass fiber filters with a Inotec 96 well cell harvester. Filters were washed three times with ice cold buffer and bound radioactivity was determined (Ki).

Row | Structure (SMILES) | selectivity in binding to alpha 1a receptors versus alpha 1b [1] | pKi ([2]; human alpha 1a cell line membranes, 100 pM [125I]-HEAT, room temperature, one hour) | alpha 1 antagonist activity of the (S) enantiomer relative to the (R) enantiomer ([2]; enantiomer comparison, in words, test not specified)
1 | CC1=C(C(=O)NCCCN2CCC(C#N)(c3ccccn3)CC2)[C@@H](c2ccc(F)c(F)c2)CC(=O)N1C [Example 17, 4-(R)-(3 ,4-Difluorophenyl)-1,6-dimethyl-3,4-dihydro-2-pyridinone-5-carboxylic acid{3-[4-(2-pyridyl)-4-cyano-piperidine-1-yl]-propyl}amide] | about 8 fold | 6.59 | 
2 | CC1=C(C(=O)NCCCN2CCC(c3ccc(F)cc3)CC2)[C@H](c2ccc(F)c(F)c2)CC(=O)N1 [Example 18 (S enantiomer), 4-(S)-(3,4-difluorophenyl)-6-methyl-3,4-dihydro-2-pyridinone-5-carboxylic acid{3-[4-(4-fluorophenyl)-piperidine-1-yl]-propyl}amide] |  |  | less active
